Legend:
dap1Δ S. cerevisiae = test: Amphotericin B sensitivity of dap1Δ yeast; assay type: cell-based; settings: 37° C; data not shown
Experimental: PGRMC1 and its homologues have been implicated to be involved in a number of distinct biological processes. […] Additionally, dap1Δ S. cerevisiae appears to be resistant to the polyene antibiotic amphotericin B at 37° C. (data not shown). Amphotericin B functions in a similar manner as nystatin in binding to and depleting membrane ergosterol thereby killing the cell.

His10-PGRMC1 = target: T1, His10-PGRMC1 (Homo sapiens, UniProt O00264); test: Competition of cold competitors with [^3H] progesterone or [^3H] cholesterol for His10-PGRMC1 binding; settings: for effect of cold competitor on binding of [^3H] cholesterol: competitor at ten-fold higher concentration; for effect of cold competitor on specific [^3H] progesterone binding: competitor in ten-fold excess
T1 construct: a product containing the full length coding region of PGMRC1 flanked by Nde1 and BamHI restriction sites; made in house; host or cells: E. coli BL21 (DE3) / BL21 codon plus (RIPL); purified bacterial membranes
Experimental: The standard 10 μL binding reaction contained 10 μp purified membranes (total protein) and 10 μM [^3H] progesterone or [^3H] cholesterol (3,000-5,000 cpm) in buffer A: 20% ethanol. Stock solutions (100 μM) of [^3H] cholesterol and [^3H] progesterone containing ˜4×10^4 cpm/μL, were prepared in 95% ethanol. Reactions were prepared in clear 2.0 mL microcentrifuge tubes on ice. To start the reaction, the microfuge tube was briefly mixed (vortex) and placed at 37° C. Following a 10 to 30 min incubation, the tubes were centrifuged in a microfuge (˜13,000 rpm) for 2 min. The supernatant was carefully removed and the pellet was washed with an additional 10 μL water. After a second round of centrifugation (2 min; 13,000 rpm), the resulting supernatant was combined with the first and the pellet was resuspended in 20 μL H2O, Scintillation fluid (700 μL Wallac Optiflour) was added to each fraction and the fractions were mixed extensively. The fractions were then counted in a multi-well scintillation counter (Wallac Microbeta Triluxmax, Waltham, Mass.) for 30 seconds each. Binding are reported as μ/moles of ligand bound per mg of membrane protein. His10-PGRMC1 (His10 disclosed as SEQ ID NO: 14)-specific binding is reported as the difference in binding between transformed and untransformed bacteria. Experimental deviations from the standard assay conditions are noted in individual figure legends.
To test whether progesterone and cholesterol compete for the same specific binding site, the direct binding of [^3H] progesterone or [^3H] cholesterol to His10-PGRMC1 (His10 disclosed as SEQ ID NO: 14) in the presence of various cold competitors was examined. In these experiments, the standard amount of [^3H] ligand was combined with a cold competitor at either 10 or 100-fold higher concentration and mixed well to ensure homogeneity. These stock ligand solutions were then used in the standard binding assay as described.
The ability of other putative ligands reported in the literature to compete with progesterone binding was examined. […] As a control, cold progesterone (P) was used as a competitor and it was observed that excess cold progesterone competes with [^3H] progesterone for His10-PGRMC1 (His10 disclosed as SEQ ID NO: 14) binding. Contrastingly, binding of [^3H] cholesterol to His10-PGRMC1 (His10 disclosed as SEQ ID NO: 14) was unaffected by the presence of progesterone, ergosterol, or heme at ten-fold higher concentrations (FIG. 9, cholesterol). It was not until competitor concentrations were 100-fold higher than ligand that a reduction of cholesterol binding was observed.

T1 sequence (O00264 whole entry): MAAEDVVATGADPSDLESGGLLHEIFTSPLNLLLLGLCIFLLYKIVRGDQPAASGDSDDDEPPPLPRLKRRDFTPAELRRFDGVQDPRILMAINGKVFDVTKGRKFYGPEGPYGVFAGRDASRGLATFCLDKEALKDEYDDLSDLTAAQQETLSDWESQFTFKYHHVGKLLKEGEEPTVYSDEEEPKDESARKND

Row | effect of cold competitor on binding of [^3H] cholesterol (His10-PGRMC1) | effect of cold competitor on specific [^3H] progesterone binding (His10-PGRMC1) | Compound | sensitivity of dap1Δ strain to the antibiotic (dap1Δ S. cerevisiae)
1 | – | – | C[C@@H]1[C@H](O)[C@@H](C)/C=C/C=C/C=C/C=C/C=C/C=C/C=C/[C@H](O[C@@H]2O[C@H](C)[C@@H](O)[C@H](N)[C@@H]2O)C[C@@H]2O[C@](O)(C[C@@H](O)C[C@@H](O)[C@H](O)CC[C@@H](O)C[C@@H](O)CC(=O)O[C@H]1C)C[C@H](O)[C@H]2C(=O)O [amphotericin B] | resistant
2 | unaffected | reduced | C=CC1=C(C)c2cc3[n-]c(cc4[n-]c(cc5nc(cc1n2)C(C)=C5C=C)c(C)c4CCC(=O)O)c(CCC(=O)O)c3C.[Fe+2] [heme] | –
3 | unaffected | reduced | CC(C)[C@@H](C)/C=C/[C@@H](C)[C@H]1CC[C@H]2C3=CC=C4C[C@@H](O)CC[C@]4(C)[C@H]3CC[C@]12C [ergosterol] | –

Source: patent US8187821B2, “Compositions and methods for the modulation of PGRMC1” (University of Utah Research Foundation, priority 2008, dated 2012)
